Source: paper PMC8151276, “An Integrated Approach toward NanoBRET Tracers for Analysis of GPCR Ligand Engagement” (Molecules, 2021)

Target: T1, OPRD1 (Homo sapiens, UniProt P41143)
T1 construct: purchased Promega (in-house HiBiT-GPCR construct library, NanoBRET)
Assay: NanoBRET screen HiBiT-OPRD1 in HEK293
Format: binding
Method: Each tracer candidate was screened across the entire library of HiBiT-GPCR constructs using NanoBRET as the detection modality. As depicted in Figure 4A, the specificity of interactions was evaluated through decrease in BRET due to competitive displacement of a bound tracer by excess parental compound. Each tracer was analyzed for binding to each HiBiT-GPCR fusion in the absence and in the presence of competing parental compound. Briefly, HEK293 cells were transfected with HiBiT-GPCR constructs diluted into promoterless DNA to reduce expression and maximize translocation to the cell surface. Each tracer candidate was then screened at concentrations of 1 μM and 0.1 μM across cells expressing these fusions. Cells were treated for 1.5 h with tracer either alone or in the presence of 20 μM competing parental compound (i.e., control). BRET was measured upon addition of purified LgBiT and subsequent complementation with HiBiT genetically fused to a GPCR. The specificity of interactions was assessed through a decrease in BRET signal due to competitive displacement of the bound tracer. To further gauge the robustness of these interactions, the fold response over the control (i.e., BRETtracer/BRETcontrol) was calculated. We chose a 1.5-fold response, which translates to ≥7-fold signal over noise as the minimal threshold required to score an interaction as positive.
HiBiT-GPCR DNA constructs were diluted in 10 mM Tris pH 8 to a final concentration of 0.01 μg/μL, arrayed in 96-well plates and stored at −20 °C. For transfection, HEK293 cells were suspended in Opti-MEM (without phenol red) supplemented with 2% fetal bovine serum (Seradigm) and 100 units/mL penicillin–streptomycin (Gibco) at a final concentration of 220,000 cells/mL and dispensed into white 96-well plates at 90 μL/well. Subsequent transfections and screens were carried using an Agilent Bravo Automated Liquid Handling Platform. First, the 96-well HiBiT DNA arrays were diluted 25-fold in Opti-MEM (without serum or phenol red) to a final concentration of 0.0004 μg/μL and 20 μL of the diluted DNAs were transferred into new 96-well plates. Next, promoterless carrier DNA (1 μg/μL) was diluted 25-fold (0.04 μg/μL) and then dispensed into the diluted arrays at 20 μL/well. Following brief mixing, Viafect transfection reagent (Promega) diluted 16-fold into Opti-MEM was dispensed into the plates at 40 μL/well. After mixing by pipetting, plates were incubated for 10 min on the pipetting station deck. The DNA-transfection reagent complexes were then added to plates containing cells. To facilitate the screen, 10 μL of DNA-transfection reagent complexes were added in duplicates to the top 4 and bottom 4 rows, resulting in two identical 48-well arrays per plate. Plates with transfected cells were incubated for 18–20 h at 37 °C/5% CO2. A screen of each tracer across the entire library using two different concentrations requires duplicate plates of transfected cells. Depending on the number of tracers being screened, transfections can be scaled up using the same ratios. The next day, for each tracer, four 20× screening solutions in tracer dilution buffer (Promega) were prepared: two duplicates at final concentration of 20 μM and two duplicates at a final concentration of 2 μM. […] The four resulting solutions were diluted 4-fold in Opti-MEM without serum or phenol red to generate 5× solutions (5 µM and 0.5 µM tracer +/− 100 μM competing compound). To screen the library, a BioTek MultiFlo FX liquid dispenser was used to dispense 22.5 µL of tracer solution to the top 4 rows and 22.5 µL tracer + competing compound solution to the 4 bottom rows. Plates were briefly mixed on an orbital shaker and incubated for 1.5 h at room temperature. […] Plates were briefly mixed on an orbital shaker and incubated for 15 min to allow complementation.

T1 sequence (P41143 whole entry): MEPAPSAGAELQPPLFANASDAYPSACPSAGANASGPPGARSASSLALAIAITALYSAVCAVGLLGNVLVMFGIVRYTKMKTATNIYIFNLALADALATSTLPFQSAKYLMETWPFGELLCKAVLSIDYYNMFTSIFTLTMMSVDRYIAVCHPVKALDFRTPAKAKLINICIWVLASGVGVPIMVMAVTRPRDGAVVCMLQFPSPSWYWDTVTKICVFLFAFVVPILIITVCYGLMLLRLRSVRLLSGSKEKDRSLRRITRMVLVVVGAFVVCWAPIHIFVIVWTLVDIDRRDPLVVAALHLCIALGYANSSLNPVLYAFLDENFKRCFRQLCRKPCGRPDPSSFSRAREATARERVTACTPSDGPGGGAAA

Row | SMILES | NanoBRET Fold Response (OPRD1, tracer 0.1μM) | NanoBRET Fold Response (OPRD1, tracer 1μM) | also measured
1 | Cc1nc2n(c(=O)c1CCN1CCC(c3noc4cc(F)ccc34)CC1)CCCC2OC(=O)NCCOCCOCCOCCOCCNC(=O)CCc1ccc2n1[B-](F)(F)[N+]1=C(c3ccc[nH]3)C=CC1=C2 (stereo not drawn) [Risperidone-2-NB590] | 0.99 | 0.99 | –
2 | CCOC(=O)c1cc(C#N)c(N2CCC(C(=O)NS(=O)(=O)Cc3ccccc3/C=C/C(=O)NCCNC(=O)CCc3ccc4n3[B-](F)(F)[N+]3=C(c5ccc[nH]5)C=CC3=C4)CC2)nc1C [AZD1283-1-NB590] | – | – | NanoBRET Fold Response (OPRD1, 0.1μM): 1.09; NanoBRET Fold Response (OPRD1, 1μM): 1.08
3 | Cc1cc2c(s1)Nc1ccccc1N=C2N1CCN(CCCNC(=O)CCOCCOCCOCCOCCNC(=O)CCc2ccc3n2[B-](F)(F)[N+]2=C(c4ccc[nH]4)C=CC2=C3)CC1 [Olanzapine-a-2-NB590] | 0.95 | 1.09 | –
4 | COc1ccccc1N1CCN(CCCCN2C(=O)c3ccc(CNC(=O)CCOCCNC(=O)c4ccc(CNC(=O)CCc5ccc6n5[B-](F)(F)[N+]5=C(c7ccc[nH]7)C=CC5=C6)cc4)cc3C2=O)CC1 [NAN-190-3-NB590] | 0.79 | 1.17 | –
5 | CC(C)N(CC[C@H](c1ccccc1)c1cc(CCNC(=O)CCOCCOCCOCCOCCNC(=O)CCc2ccc3n2[B-](F)(F)[N+]2=C(c4ccc[nH]4)C=CC2=C3)ccc1O)C(C)C [Tolterodine-2-NB590] | 1.00 | 0.94 | –
6 | CN(C)CCC=C1c2ccccc2CCc2ccc(C(=O)NCCNC(=O)CCOCCOCCOCCOCCNC(=O)CCc3ccc4n3[B-](F)(F)[N+]3=C(c5ccc[nH]5)C=CC3=C4)cc21 [Amitriptyline-b-2-NB590] | – | – | NanoBRET Fold Response (tracer at 0.1μM, listed as amitriptyline-b-2-NB590): 1.01; NanoBRET Fold Response (tracer at 1μM, listed as amitriptyline-b-2-NB590): 1.01
7 | O=C(CCOCCOCCOCCOCCNC(=O)CCc1ccc2n1[B-](F)(F)[N+]1=C(c3ccc[nH]3)C=CC1=C2)NCCCN1CCN(C2=Nc3ccccc3Oc3ccc(Cl)cc32)CC1 [Loxapine-a-2-NB590] | 1.01 | 1.04 | –
8 | CN(C)CCC=C1c2ccccc2CCc2ccc(C(=O)NCCNC(=O)CCOCCOCCOCCOCCNC(=O)CCc3ccc4n3[B-](F)(F)[N+]3=C(c5ccc[nH]5)C=CC3=C4)cc21 [Amitriptyline-a-2-NB590] | – | – | NanoBRET Fold Response (tracer at 0.1μM): 0.99; NanoBRET Fold Response (tracer at 1μM): 0.91
9 | O=C(CCc1ccc2n1[B-](F)(F)[N+]1=C(c3ccc[nH]3)C=CC1=C2)NCCOCCOCCNC(=O)OCCOCCN1CCN(C2=Nc3ccccc3Sc3ccccc32)CC1 [Quetiapine-a-2-NB590] | 1.11 | 0.89 | –
10 | COc1ccccc1N1CCN(CCCCN2C(=O)c3ccc(CNC(=O)CCOCCOCCOCCOCCNC(=O)CCc4ccc5n4[B-](F)(F)[N+]4=C(c6ccc[nH]6)C=CC4=C5)cc3C2=O)CC1 [NAN-190-2-NB590] | 0.98 | – | –
11 | CN1CCN(C2=Nc3cc(Cl)ccc3N(CC(=O)NCCOCCOCCOCCOCCNC(=O)CCc3ccc4n3[B-](F)(F)[N+]3=C(c5ccc[nH]5)C=CC3=C4)c3ccccc32)CC1 [Clozapine-c-2-NB590] | – | – | NanoBRET Fold Response (OPRD1, 0.1μM tracer): 0.99; NanoBRET Fold Response (OPRD1, 1μM tracer): 0.92
12 | N#CN/C(=N\CCNC(=O)c1ccc(N)cc1)NCCCOc1cccc(CN2CCCCC2)c1 [Aminopotentidine (unmodified)] | – | – | NanoBRET Fold Response (OPRD1, other tracers/Aminopotentidine (unmodified), 0.1μM): 1.25; NanoBRET Fold Response (OPRD1, other tracers/Aminopotentidine (unmodified), 1μM): 1.01
13 | COc1ccc2[nH]c(-c3ccc(CNC(=O)CCOCCOCCOCCOCCNC(=O)CCc4ccc5n4[B-](F)(F)[N+]4=C(c6ccc[nH]6)C=CC4=C5)cc3)c(CCNC(C)=O)c2n1 [AzomelatoninICO9-2-NB590] | – | – | NanoBRET Fold Response (0.1μM tracer): 1.06; NanoBRET Fold Response (1μM tracer): 1.03
14 | O=C(CCOCCOCCOCCOCCNC(=O)CCc1ccc2n1[B-](F)(F)[N+]1=C(c3ccc[nH]3)C=CC1=C2)NCCCN1CCN(C2=Nc3cc(Cl)ccc3Nc3ccccc32)CC1 [Clozapine-a-2-NB590] | – | – | NanoBRET Fold Response (OPRD1, 0.1μM tracer): 1.04; NanoBRET Fold Response (OPRD1, 1μM tracer): 0.95
15 | CCCn1c(=O)c2[nH]c(-c3ccc(OCC(=O)NCCNC(=O)CCOCCNC(=O)c4ccc(CNC(=O)CCc5ccc6n5[B-](F)(F)[N+]5=C(c7ccc[nH]7)C=CC5=C6)cc4)cc3)nc2n(CCC)c1=O [XAC-3-NB590] | 0.97 | 0.81 | –
16 | O=C(CCc1ccc2n1[B-](F)(F)[N+]1=C(c3ccc[nH]3)C=CC1=C2)NCc1ccc(C(=O)NCCOCCOCCNCC(O)COc2cccc3ccccc23)cc1 (stereo not drawn) [Propranolol-3-NB590] | – | – | NanoBRET Fold Response (OPRD1, 0.1μM): 0.97; NanoBRET Fold Response (OPRD1, 1μM): 1.01
17 | O=C(CCc1ccc2n1[B-](F)(F)[N+]1=C(c3ccc[nH]3)C=CC1=C2)NCc1ccc(C(=O)NCCOCCC(=O)N[C@@H]2CC[C@@]3(O)[C@H]4Cc5ccc(O)c6c5[C@@]3(CCN4CC3CC3)[C@H]2O6)cc1 [Naltrexone-3-NB590] | 1.81 | 1.52 | –
18 | CN(CCC=C1c2ccccc2CCc2ccccc21)C(=O)CCOCCOCCOCCOCCNC(=O)CCc1ccc2n1[B-](F)(F)[N+]1=C(c3ccc[nH]3)C=CC1=C2 [Amitriptyline-e-2-NB590] | – | – | NanoBRET Fold Response (tracer at 1μM): 1.01
19 | N#CN=C(NCCCOc1cccc(CN2CCCCC2)c1)NCCNC(=O)CCOCCOCCOCCOCCNC(=O)CCc1ccc2n1[B-](F)(F)[N+]1=C(c3ccc[nH]3)C=CC1=C2 [Aminopotentidine-2-NB590] | 1.05 | 1.02 | –
20 | COc1ccc2c(n1)c(CCNC(C)=O)cn2CCNC(=O)CCc1ccc2n1[B-](F)(F)[N+]1=C(c3ccc[nH]3)C=CC1=C2 [Azamelatonin-1-NB590] | – | – | NanoBRET Fold Response (0.1μM tracer): 1.00; NanoBRET Fold Response (1μM tracer): 1.00
21 | CC(C)N(CC[C@H](c1ccccc1)c1cc(CCNC(=O)c2ccc(CNC(=O)CCc3ccc4n3[B-](F)(F)[N+]3=C(c5ccc[nH]5)C=CC3=C4)cc2)ccc1O)C(C)C [Tolterodine-BZ-NB590] | 1.06 | 1.05 | –
22 | CN1CCN(C2=Nc3cc(Cl)ccc3Nc3ccc(CNC(=O)CCOCCOCCOCCOCCNC(=O)CCc4ccc5n4[B-](F)(F)[N+]4=C(c6ccc[nH]6)C=CC4=C5)cc32)CC1 [Clozapine-b-2-NB590] | – | – | NanoBRET Fold Response (OPRD1, 0.1μM tracer): 1.02; NanoBRET Fold Response (OPRD1, 1μM tracer): 0.99
